Experimental data published in US20260258025A1, “INHIBITORS OF TDP-43 AND TAU AGGREGATION” (Aquinnah Pharmaceuticals, inc., priority 2023, published 2026).
“Also recorded” adds a separate entry of the source.

What was measured:
[1] = test system: insoluble TDP-43; assay: Cell fractionation and immunoblot of TDP-43 in MG-132 challenged human motor neurons; assay type: cell-based; conditions: 500 nM Compound 183 with MG-132 1 μM
Experimental: Cell culture and differentiation of iPS Cells into motor neurons. Pluripotent stem cells were grown with mTeSR Plus medium on tissue culture dishes coated with Matrigel, and maintained in 5% CO2 incubators at 37° C. Stem cells were passaged as small aggregates of cells after 1 mM EDTA treatment. […] was added to the cultures for 16-24 h after dissociation to prevent cell death. The iP11NA iPS cell line was acquired from ALSTEM. This cell line was generated from pre-made footprint-free human iPS cells with DOX inducible Ngn2 that has been stably integrated into the human AAVS1 “Safe Harbor” site, and provides a convenient means to differentiate human iPS cells into neurons rapidly and efficiently. Motor neuron differentiation was achieved using a modified 5-day strategy. […]
For analysis of TDP-43 cellular distribution, d14 motor neurons were lysed with Thermo Subcellular Protein Fractionation Kit for cultured cells and processed according to the manufacturer's instructions. […] Fluorescent secondary antibodies were used for band detection and the Kaleidoscope precision plus protein ladder for size estimation. iBright FL1500 imaging system and software were used to quantitate protein band signal. […]

[2] = test system: tau stress granules; assay: SY5Y-tT1 tau arsenite assay (tau stress granules per cell); assay type: cell-based; conditions: SY5Y-tT1 cells, 2 hours compound, 90 minutes arsenite, 50% reduction of granules per cell, read-out: IC50, Inhibitor Activity of Tau Stress Granules
How it was run: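 SY5Y-tT1 cells were tetracycline-induced for 48 h, pretreated 2 h with serially diluted compounds (PERK inhibitor GSK2606414 as control), then exposed to arsenite for 90 min at 37° C. After fixation and Hoechst staining, tau stress granules per cell were imaged; IC50 is the concentration halving granules per cell.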

IC50 [2]: < 500 nM
Compound: Cc1cc(-c2ccc(C3CCN(C(C)C)CC3)cc2)sc1C(=O)N1CC[C@H](N)C1 [Compound 183, (S)-(3-aminopyrrolidin-1-yl)(5-(4-(1-isopropylpiperidin-4-yl)phenyl)-3-methylthiophen-2-yl)methanone]
TDP-43 level in the nuclear fraction (immunoblot) [1]: the levels of TDP-43 in the nucleus were maintained; also recorded: restoring nuclear TDP-43 localization
